# Test results published in US20250368932A1, “SYSTEM FOR MIMICKING CELLULAR MICROENVIRONMENT AND METHOD FOR EVALUATING CELL DEVELOPMENT OR DRUG THERAPY EFFECTIVENESS USING THE SAME” (Anivance AI Corporation, priority 2024, published 2025).
# Experiments:
# [1] = tested on: cell spheroids (A549); assay: Effect of TGF-β on spreading and metastasis of cell spheroids cultured on the hydrogel; format: cell-based, human
# Experimental: In some embodiments, the present disclosure uses Ultra-Low Attachment (ULA) 96-well plates (7007, Corning) to conduct in vitro 3D cell spheroid cultures. The ULA 96-well plates feature an extremely low attachment surface that minimizes cell adhesion and protein absorption, facilitating the formation of cell spheroids. In each well of the ULA 96-well plate, 1000 to 8000 cells (with each well containing 200 μL of cell culture medium) are added, and the morphological changes of the cells are observed. After four days of cell seeding, compact cell spheroids are formed.
# In some embodiments, before seeding cell spheroids, the chip is irradiated with ultraviolet (UV) light for 30 minutes and washed with filtered 75% alcohol, 95% alcohol, and deionized water, respectively. […]
# In some embodiments, Image-J software is used to perform quantitative analysis of the cell spheroid spreading area. […] The spreading area of cell spheroids is then quantitatively analyzed.
# After culturing on the hydrogel for 48 hours, the development of the cell spheroids is observed using a fluorescence microscope. […] The original cell spheroids display red fluorescence indicating the expression of vimentin. […] “Top view” and “side view” refer to the respective perspectives, and the green fluorescence labels F-actin.
# [2] = tested on: Non-Small Cell Lung Cancer Tumor Spheroids (co-cultured cell spheroids, A549 / HFL-1); assay: Morphology and area of tumor spheroids after drug administration on the chip (bright-field, quantified); format: cell-based, human
# Experimental: In some embodiments, the A549 cell line of the present disclosure is purchased from ATCC, and is commonly used for developing lung cancer drugs and drug delivery experiments. The A549 cells are cultured in F12K cell culture medium (10-025, Corning) supplemented with 10% fetal bovine serum (FBS) (35-076-EV, Corning). The cells are taken out from the liquid nitrogen tank and thawed in a […] water bath. The cell suspension in the cryovial is extracted and mixed with 1 mL of cell culture medium, followed by adding it to a T-75 cell culture flask containing 9 mL of cell culture medium for uniform mixing and culture. When cell confluence reaches 80%, cell passaging is carried out. Cells are first rinsed with DPBS and then detached from the T-75 cell culture flask using trypsin. The detached A549 cells are transferred to a 15 mL centrifuge tube, and centrifuged at 1000 rpm for 5 minutes at 24° C. After centrifugation, the cells are concentrated at the bottom of the centrifuge tube, and the supernatant is aspirated. Subsequently, 500 μL of cell culture medium is added, mixed thoroughly, and the cells are resuspended. A 20 μL cell suspension is then withdrawn, and the cell count is determined using an automatic cell counter, which is used to estimate the total number of cells in the centrifuge tube. The estimated number of cells is then seeded back into the T-75 cell culture flask.
# In some embodiments, the HFL-1 cell line of the present disclosure is purchased from BCRC, and is commonly used for co-culture and cytotoxicity studies. The cells are cultured in F12K cell culture medium (10-025, Corning) supplemented with 10% fetal bovine serum (FBS) (35-076-EV, Corning). The cells are removed from the liquid nitrogen tank and thawed in a 37° C. water bath. […] A 20 μL cell suspension is then withdrawn, and the cell count is determined using an automatic cell counter to estimate the total number of cells in the centrifuge tube. […]
Molecule,"outward expansion and migration of cells in the cell spheroids (spreading area) ([1]; 20 ng/ml TGF-β, 48 hours on hydrogel, versus untreated, FIG. 3B/3C)","structure of cell spheroids ([1]; prolonged TGF-β treatment, FIG. 3D)","shape of cell spheroids after drug treatment ([2]; Dox 0, 40, 90 and 320 μM, 48 hours, on chip, FIG. 10A/10B)","area of tumor spheroids (quantitative analysis) ([2]; Dox 0, 40, 90 and 320 μM, FIG. 10C/10D)","therapeutic effect on static tumor spheroids (summary) ([2]; static tumor spheroids, single drug)"
transforming growth factor-beta [TGF-β],increased outward expansion and migration range,disaggregate and expand outward,–,–,–
COc1cccc2c1C(=O)c1c(O)c3c(c(O)c1C2=O)C[C@@](O)(C(=O)CO)C[C@@H]3O[C@H]1C[C@H](N)[C@H](O)[C@H](C)O1 [Dox],–,–,maintain their original shape,no significant decrease,no therapeutic effect
